# Patent US11919854B2, “P2RX7 modulators in therapy” (Centre national de la recherche scientifique, priority 2018, dated 2024)
# Columns and labels:
# [1] = Plasmatic concentration after intraperitoneal administration (LC-MS/MS); assay type: in vivo, mice; details: ip
# Procedure: B. HEI 3090 is found within plasma until 18 h after intraperitoneal administration. Intraperitoneal administration of HEI-3090 (0.166 mg/mL in 10% DMSO) was performed and serum was taken at 0, 10, 20, 30, […], 120, 240, 360, 1080 and 1440 min. Plasmatic concentration was determined by LC-MS/MS and reached a maximum of 2.5 μM.
# Stability was studied in the mouse liver microsome system—and human, not shown—(FIG. 13A) and directly in vivo, for HEI3090 molecule (FIG. 13B). These experiments highlighted that HEI3090 is found at a concentration of maximum 2.5 μM in the plasma of mice injected with HEI3090 (ip, 1.5 mg/kg in 10% DMSO).
# [2] = system: LLC (Lewis Lung Cancer) cells; experiment: Syngeneic tumor mice model, LLC subcutaneous; assay type: in vivo, C57BL6 mice
# Procedure: 5×10^5 LLC or 5×10^5 B16F10 cells were injected sub cutaneously in the right flank of C57BL6 mice. Mice received HEI3090 (ip, 2.5 mg/kg in 10% DMSO/PBS) daily or placebo (10% DMSO/PBS). A,C. incidence of tumor appearance B,D. Tumor size (mm2) and tumor weight at sacrifice day (J12). E. HEI-treated tumors are more immunogenic. Expression of CMH1 (H2K^b/D^b) and PD-L1 by LLC (black) and B16F10 (grey) tumors is shown in dot plots. Numbers highlighted the percentage of tumor cells positive for H2K^b/D^b and PD-L1. […] F. CD-45 positive infiltrates is increased in LLC and B16F10 tumors. *, p<0.05; **, p<0.01; ***, p<0.001 Mann-Whitney test.
# 5×10^5 LLC or 5×10^5 B16F10 cells were injected sub cutaneously in the right flank of C57BL6 mice. Mice received HEI3090 (ip, 2.5 mg/kg in 10% DMSO/PBS) daily or placebo (10% DMSO/PBS). A. The quantity of immunosuppressive cells is reduced. Dot plot of representative experiment. Numbers highlighted the percentage of M-MDSC and PMN-MDSC. […] B. The quantity of effector T cells ([…], NK, CD4+) is increased.
# 5×10^5 LLC cells were injected sub cutaneously in the right flank of C57BL6 mice. Mice received HEI3090 (ip, 2.5 mg/kg in 10% DMSO/PBS) alone or in presence of anti CD4 antibody daily or placebo (10% DMSO/PBS). A. Tumor growth from the 3 groups was followed daily. B. tumor weight at sacrifice day (J12). *, p<0.05; ****, p<0.0001 (Mann-Whitney test).
# a, b. Phenotypic flow cytometry analyses of tumor infiltrating cells. LLC tumors were collected at day 12. Proportion of PMN-MDSC among CD45+ within LLC tumors from mice treated with vehicle or HEI3090 (a). Ratio of NK, CD4+ or CD8+ T cells on PMN-MDSC (b).
# c, d. 5.105 LLC were injected s.c. into the flank of C57BL6/J mice. Then mice were treated i.p. with vehicle (PBS, 10% DMSO) or with HEI3090 (1.5 mg/kg in PBS, 10% DMSO) or with HEI3090 and depleting antibody against NK1.1, CD4+ or CD8+ T cells. Antibodies were administered i.p every 3 days (200 μg/injection). Spaghetti plots and tumor weight at day 12 (d). Each curve represents one mouse.
# e-g Functional flow cytometry analyses of tumor infiltrating immune cells or splenocytes. Tumors were stimulated with PMA/ionomycine and production of IFN-γ and IL-10 were simultaneously analyzed in CD45+, NK, CD4+ or CD8+ T cells. Graphs shown proportion of IFN-γ producing cells into CD45+ cells or geometric mean of fluorescence (e). Representative dot plots of IFN-γ and IL-10 staining into TILs (f). Ratios of IFN-γ on IL-10 positive cells on each TIL. Degranulation assay of splenocytes from LLC tumor bearing mice treated with vehicle or HEI3090 (g) Splenocytes were re-stimulated with LLC in vitro and CD107a positive cells in NK, CD4+ and CD8+ T cells were represented.
# a. Flow cytometry analyses of P2RX7 expression among conventional dendritic cells CD4+ or CD8+ within LLC tumors.
# b. Protein levels of IL-1p and IL-18 in serum of LLC tumor bearing mice treated with vehicle or HEI3090, determined by ELISA.
# c. 5.105 LLC were injected s.c. into the flank of C57BL6/J mice. Then mice were treated i.p. with vehicle (PBS, 10% DMSO) or with HEI3090 (1.5 mg/kg in PBS, 10% DMSO) or with HEI3090 and neutralizing antibody against IL-1p or IL-18 from day 1 to day 12. Antibodies were administered i.p every 3 days (200 μg/injection).
# e. Effect of HEI3090 on tumor growth in IL-18 deficient mice (IL-18^−/−). 5.105 LLC were injected s.c. into the flank of IL-18^−/− mice. Mice were treated i.p. with vehicle (PBS, 10% DMSO) or with HEI3090 (1.5 mg/kg in PBS, 10% DMSO) from day 1 to day 12.
# 4.2. By killing tumoral cells, HEI3090 may represent a new anti-tumor treatment. To test this hypothesis, immunocompetent C57B16J mice were subcutaneously injected with 5×10^5 B16F10 or 5×10^5 LLC (Lewis Lung Cancer) cells and treated daily with HEI3090 (ip, 2.5 mg/kg in 10% DMSO/PBS) or placebo (10% DMSO/PBS). […]
structure (smiles),measurement,setting,value
"O=C(NCc1ccc(Cl)cc1Cl)[C@@H]1CCC(=O)N1C(=O)Nc1ccc(Cl)nc1 [HEI3090, (S)—N^1-(6-Chloropyridin-3-yl)-N^2-(2,4-dichlorobenzyl)-5-oxopyrrolidine-1,2-dicarboxamide]",time found within plasma after intraperitoneal administration,[1]; 0.166 mg/mL in 10% DMSO,≤ 18 h
same,maximum plasmatic concentration,"[1]; mice, 1.5 mg/kg in 10% DMSO (0.166 mg/mL in 10% DMSO)",2.5 µM
same,IL18 in plasma and within the tumor,"[2]; ELISA in serum, IHC in tumors",overexpressed
same,immune cells required for anti-tumor effect,"[2]; HEI3090 1.5 mg/kg ip with depleting antibody against NK1.1, CD4+ or CD8+ T cells",both NK and CD4+ cells are required
same,IFN-γ expression of NK and CD4+ cells in tumor,"[2]; HEI3090 1.5 mg/kg ip, flow cytometry",expressed more IFN-γ
same,immunosuppressive cells (PMN-MDSC) in tumor infiltrates,[2]; HEI3090 ip 2.5 mg/kg daily,less PMN-MDSC
same,tumors weight,[2]; HEI3090 ip 2.5 mg/kg daily (placebo 295 mg),80 mg
same,reduction of tumors weight,"[2]; HEI3090 ip 2.5 mg/kg daily, vs placebo",4 folds
same,tumor size with depletion of T CD4+ lymphocytes,[2]; HEI3090 plus anti-T CD4+ antibody,"bigger than tumors from the HEI3090 group, and smaller than tumors from the placebo group"
same,tumor growth without IL18,"[2]; blocking IL18 antibody and Il18−/− mice, HEI3090 1.5 mg/kg ip",did not block tumor growth anymore
same,P2RX7 expression on dendritic cells within tumors,[2]; flow cytometry,increased P2RX7 expression on dendritic cells
